Measured values reported in patent US8323911B2, “High throughput assay for discovering new inhibitors of the GIRK1/4 channel” (University of South Carolina, priority 2010, dated 2012).
Ends that are not written are not given here.

Experiments:
[1] = target: T1, GIRK1/4 channel (Mus musculus, UniProt P48545+P63250); assay: GIRK1/4 channel FLIPR assay (DiBAC4(3) fluorescence, carbachol-stimulated HL-1 cells); format: cell-based; settings: for IC50: 5 min pretreatment, read-out: IC50 for drug block of the carbachol signal; for inhibition of the carbachol signal during pretreatment: 1 μM; for block of the carbachol-sensitive fluorescence signal: at the concentrations tested
T1 construct: consistent with the expression of GIRK1/4 channels in the HL-1 cells; endogenous in cells; host or cells: HL-1 immortalized cardiac atrial cells
T1 sequence (P63250 1-501): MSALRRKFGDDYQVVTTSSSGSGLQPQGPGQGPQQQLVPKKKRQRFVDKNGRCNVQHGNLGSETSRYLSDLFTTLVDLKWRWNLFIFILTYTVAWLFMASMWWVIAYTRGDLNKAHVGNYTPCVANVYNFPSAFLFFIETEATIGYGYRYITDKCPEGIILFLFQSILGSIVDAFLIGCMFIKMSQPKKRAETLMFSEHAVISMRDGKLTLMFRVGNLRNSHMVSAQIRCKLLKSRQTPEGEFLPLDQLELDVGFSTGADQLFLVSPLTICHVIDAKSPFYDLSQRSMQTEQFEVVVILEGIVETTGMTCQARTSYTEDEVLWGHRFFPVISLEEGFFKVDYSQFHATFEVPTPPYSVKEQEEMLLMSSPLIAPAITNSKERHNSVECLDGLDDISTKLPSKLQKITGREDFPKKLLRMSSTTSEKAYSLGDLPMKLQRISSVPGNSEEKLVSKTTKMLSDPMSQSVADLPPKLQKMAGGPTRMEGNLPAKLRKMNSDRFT
T1 sequence (P48545 1-419): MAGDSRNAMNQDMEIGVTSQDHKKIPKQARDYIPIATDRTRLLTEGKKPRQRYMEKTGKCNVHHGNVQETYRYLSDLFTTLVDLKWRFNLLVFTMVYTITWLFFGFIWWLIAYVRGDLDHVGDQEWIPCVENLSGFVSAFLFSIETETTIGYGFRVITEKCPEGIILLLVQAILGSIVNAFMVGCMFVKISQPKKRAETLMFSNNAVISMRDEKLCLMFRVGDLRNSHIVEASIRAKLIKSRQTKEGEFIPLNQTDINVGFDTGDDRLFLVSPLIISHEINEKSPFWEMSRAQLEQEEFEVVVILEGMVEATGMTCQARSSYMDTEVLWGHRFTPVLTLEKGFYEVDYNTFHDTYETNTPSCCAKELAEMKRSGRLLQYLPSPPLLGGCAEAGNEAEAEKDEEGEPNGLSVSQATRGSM
Method: HL-1 cells were incubated for 1 h in Tyrode's solution containing 5 μM DiBAC4(3) (AnaSpec, Fremont, Calif.) and fluorescent signals recorded using a Synergy2 microplate reader (BioTek, Winosski, Vt.) at 28° C. Test compounds were dissolved in DMSO at a stock concentration of 10 mM, diluted to various concentrations, and applied to the cells for 5 min prior to the fluorescent measurements. DiBAC4(3) was present in all experimental solutions. DMSO, up to 1% in Tyrode's solution, had no adverse effects on the cell response. Carbachol or control solution (20 μL) was added to each well (total volume=220 μL) at time zero using the Synergy2 injector system. Data points were collected at 10-s intervals over a 300-s sampling period at excitation and emission wavelengths of 480 and 520 nm, respectively. Positive (carbachol or carbachol+1 mM BaCl2) and negative (water or DMSO) control experiments were performed to calculate Z′ factors. The Z′ factor is defined as Z′=1=−(3σP+3σN)/|μP−μN|, where μP and μN are the means of the positive control and negative control signals, and σp and σN are the standard deviations of the positive control and negative control signals, respectively. Plates used for Z′ factor determination contained 2 rows each of positive and negative controls. Dose-response curves for selected compounds were obtained and drug potencies determined by fitting the data with the following curve: Max/(1+([drug]/IC50)^k), where the IC50 is the concentration of the compound producing a 50% decrease in the maximal carbachol response (Max), and k is the slope factor. Interference of the test compounds with the DiBAC4(3) fluorescence was determined in the absence of cells by adding various concentrations of the compounds to Tyrode's solution containing the dye.

[2] = test system: GIRK channels; settings: HEK-293 cells; cited from earlier work
[3] = target: T2, IK,Ach (GIRK1/4 channel) (Mus musculus, UniProt P48545+P63250); assay: Patch-clamp recording of whole-cell IK,Ach currents in HL-1 cells; format: cell-based
T2 construct: consistent with the expression of GIRK1/4 channels in the HL-1 cells; endogenous in cells; host or cells: HL-1 immortalized cardiac atrial cells
T2 sequence (P63250 1-501): T1 sequence (P63250 1-501)
T2 sequence (P48545 1-419): T1 sequence (P48545 1-419)
From the text: A patch-clamp method was used to record the whole-cell IK,Ach using L/M EPC-7 (Adams & List Associates, Great Neck, N.Y.) and Axopatch 200 (Axon Instruments, Sunnyvale, Calif.) amplifiers. The procedures for measuring cardiac K^+ channels have been described in Walsh K B, Zhang J: Neonatal rat cardiac fibroblasts express three types of voltage-gated K^+ channels: regulation of a transient outward current by protein kinase C, Am J Physiol Heart Circ Physiol 2008; 294:H1010-H1017, incorporated by reference herein. Pipettes were made from borosilicate glass capillaries (World Precision Instruments, Sarasota, Fla.) and had resistances of 1 to 2 Mohms when filled with internal solution. All experiments were conducted on isolated, noncoupled HL-1 cells at room temperature (22-24° C.). For the measurement of IK,Ach, cells were placed in a normal Tyrode's solution consisting of 132 mM NaCl, 5 mM KCl, 1 mM CaCl2, 1 mM MgCl2, 5 mM dextrose, and 5 mM HEPES (pH 7.4; with NaOH) (280 mOsm). INa was blocked with tetrodotoxin (10 μM) and the Na^+ channels inactivated by maintaining the myocytes at a holding potential of −40 mV. L-type Ca^2+ channels were blocked with 500 nM nisoldipine. The internal solution was made from 50 mM KCl, 60 mM K^+-glutamate, 2 mM MgCl2, 1 mM CaCl2, 11 mM EGTA, 3 mM adenosine triphosphate (ATP), and 10 mM HEPES (pH 7.3; with KOH) (280 mOsm).
Membrane currents were recorded with 12-bit analog/digital converters (Axon Instruments). Data were sampled at 5 KHz and filtered at 1 KHz with a low-pass Bessel filter (Frequency Devices, Ottawa, Ill.). Series resistance was compensated to give the fastest possible capacity transient without producing oscillations. With this procedure, more than 70% of the series resistance could be compensated. Following the measurement of the HL-1 cell background current, IK,Ach was activated by the addition 10 μM carbachol using a rapid perfusion system. IK,Ach was defined as the BaCl2-sensitive current (see FIGS. 1A-1C, illustrating expression of GIRK1/4 channels in HL-1 cells). IK,Ach blockers were added and inhibition determined immediately after carbachol-induced activation. This limited errors in quantifying drug block due to GIRK1/4 channel desensitization and rundown. Averaged current values presented are means±SE.

[4] = test system: IK,Ach; settings: patch clamp analysis; read-out: IC50 measured in primary cultures of guinea pig atrial myocytes; cited from earlier work

NC(N)=NC(=O)c1nc(Cl)c(N2CCCCCC2)nc1N [HMA, 5-(N,N-hexamethylene)-amiloride]
IC50 ([1]; HL-1 cells, DiBAC4(3)): 0.9 µM

NC(=Nc1ccccc1)NC(=O)c1nc(Cl)c(N)nc1N [phenamil]
IC50 ([1]; HL-1 cells, DiBAC4(3)): 13 µM

C=C[C@H]1C[N@@]2CC[C@H]1C[C@@H]2[C@@H](O)c1ccnc2ccc(OC)cc12 [quinidine]
IC50 ([1]; HL-1 cells, DiBAC4(3)): 24 µM

NC(=NCc1ccccc1)NC(=O)c1nc(Cl)c(N)nc1N [benzamil]
IC50 ([1]; HL-1 cells, DiBAC4(3)): 13 µM

COc1ccc(CC(=O)Nc2cc3c(cc2[N+](=O)[O-])OC(C)(C)[C@H](O)[C@H]3NC2CC2)cc1 [NIP-142]
concentrations blocking GIRK channels [2]: nanomolar concentrations

CCCNCC(O)COc1ccccc1C(=O)CCc1ccccc1 (centres unmarked) [propafenone]
IC50 ([3]; patch clamp, measured at −100 mV, 10 μM carbachol, read-out: IC50 for block of IK,Ach current): 2 µM
IC50 ([1]; HL-1 cells, DiBAC4(3)): 3 µM

CN1[C@@H]2CC[C@H]1C[C@@H](OC(=O)C(CO)c1ccccc1)C2 (some centres unmarked) [atropine]
inhibition of the carbachol signal during pretreatment [1]: inhibited

COc1ccc(Cl)cc1C(=O)NCCc1ccc(S(=O)(=O)NC(=O)NC2CCCCC2)cc1 [glybenclamide]
block of the carbachol-sensitive fluorescence signal [1]: no block

CC(C)(C)NCC(O)COc1ccccc1C(=O)CCc1ccccc1 (centres unmarked) [TBPP, 1-{2-[3-(tert-butylamino)-2-hydroxypropoxy]phenyl}-3-phenyl-1-propanone]
IC50 ([1]; HL-1 cells, DiBAC4(3)): 2 µM

CC(C)NCC(O)c1ccc(NS(C)(=O)=O)cc1 (centres unmarked) [sotalol]
block of the carbachol-sensitive fluorescence signal [1]: no block

CN1[C@@H]2C[C@@H](OC(=O)[C@H](CO)c3ccccc3)C[C@H]1[C@@H]1O[C@@H]12 [scopolamine]
inhibition of the carbachol signal during pretreatment [1]: inhibited

CCCCCCCN(CC)CCCC(O)c1ccc(NS(C)(=O)=O)cc1 (centres unmarked) [ibutilide]
IC50 ([1]; HL-1 cells, DiBAC4(3)): 16 µM

CCN(c1nc(N)c(C(=O)N=C(N)N)nc1Cl)C(C)C [EIPA, 5-(N-ethyl-N-isopropyl)-amiloride]
IC50 ([1]; HL-1 cells, DiBAC4(3)): 0.8 µM

CC(C)N(C)c1nc(N)c(C(=O)N=C(N)N)nc1Cl [MIBA, 5-(N-methyl-N-isopropyl)-amiloride]
IC50 ([1]; HL-1 cells, DiBAC4(3)): 2 µM

N=C(N)NC(=O)c1nc(Cl)c(N)nc1N [amiloride]
block of the carbachol-sensitive signal ([1]; concentrations up to 100 μM): only a partial block

CCN(CC)CCNC(=O)c1ccc(N)cc1 [procainamide]
block of the carbachol-sensitive fluorescence signal [1]: no block

[5-(2-methyl-5-fluorophenyl)furan-2-ylcarbonyl]guanidine [KR-32568]
change in the carbachol-sensitive fluorescence ([1]; drug concentrations up to 1 μM): no significant change

C[N+](C)(C)CCOC(N)=O [carbachol]
peak carbachol-induced fluorescent signal (F/FO) ([1]; 10 μM carbachol, mean±SD, 4 plates): 0.956±0.008
EC50 ([1]; HL-1 cells, DiBAC4(3), read-out: EC50 for the carbachol-sensitive fluorescent signal (activation of GIRK1/4 channel)): 0.11 µM
carbachol-mediated decrease in the fluorescent signal ([1]; [K]o increased to 20 mM): completely eliminated
fold increase in the carbachol-sensitive signal ([1]; extracellular K+ reduced from 5 mM to 1 mM, 3 plates): 2.0±0.1 fold

N/C(=N\C(=O)c1nc(Cl)c(N)nc1N)NCc1ccc(Cl)c(Cl)c1 [DCB, dichlorobenzamil]
IC50 ([1]; HL-1 cells, DiBAC4(3)): 20 µM

[Ba+2].[Cl-].[Cl-] [BaCl2]
block of carbachol-activated inward rectifying current ([3]; 0.5 mM BaCl2): completely blocked
block of the carbachol signal ([1]; 1 mM): blocked

tertiapin (ALCNCNRIIIPHMCWKKCGKK; ends and bridges not checked; cysteine pairing not given here; UniProt P56587 1-21, looked up) [Kir toxin]
block of IK,Ach current ([3]; 100 nM): strongly blocked

O=C(NCC1CCCCN1)c1cc(OCC(F)(F)F)ccc1OCC(F)(F)F (centres unmarked) [flecainide]
block of IK,Ach current ([3]; 100 μM): strongly blocked
IC50 ([1]; HL-1 cells, DiBAC4(3)): 56 µM
IC50 [4]: 20 µM
